Data set [1] in a line: Determination of peptide hydrophobicity with RP-HPLC (adjusted retention time). It counts as physicochemical. To be noted: for tR’: Table 3, adjusted retention time as hydrophobicity; for tR’ / Adjusted retention time: RP-HPLC C18, linear 10–55% acetonitrile over 60 min; for tR’ / tR’ (adjusted retention time) / Adjusted retention time: 0.1% TFA, 25.0 °C, UV 214 nm, triplicate; for tR’ (adjusted retention time): Table 1 and b9, measure of hydrophobicity, RP-HPLC, Phenomenex Luna C18(2) 3.0 × 100 mm, 5 µm, linear 10–55% acetonitrile in water over 60 min, 0.5 mL/min, peptide 1 g/L; for Adjusted retention time: Table 2, nC = carbon atoms in fatty acid chain; for ∆tR: tR’ of the lipopeptide minus tR’ of C10-RR-NH2 or C12-RR-NH2, same RP-HPLC conditions. The method, then:
To determine peptide hydrophobicity, the Waters Alliance e2695 system with a Waters 2998 PDA Detector (software-Empower®3) was used. All analyses were carried out on a Phenomenex Luna C18(2) column (3.0 × 100 mm, 5 µm particle size, 100 Å pore size). The peptides were dissolved in water (0.1% TFA, v/v) to obtain a concentration of 1 g/L. UV detection at 214 nm was used, and aliquots (10 µL) were eluted with a linear 10–55% acetonitrile gradient in deionized water over 60 min at 25.0 ± 0.1 °C. The mobile phase flow rate was 0.5 mL/min. Both eluents contained 0.1% (v/v) of TFA. Each peptide sample was analyzed in triplicate.

In data set [2] the test system is S. aureus ATCC 25923. It counts as cell-based, Staphylococcus aureus. To be noted: ATCC 25923, 18 h. The text has this: (§1) The Acinetobacter baumannii ATCC BAA-1605, Candida albicans ATCC 10231, Enterococcus faecium ATCC 700221, Klebsiella aerogenes ATCC 13048 (previously known as Enterobacter aerogenes), Klebsiella pneumoniae ATCC 700603, Pseudomonas aeruginosa ATCC 9027, Staphylococcus aureus ATCC 25923 and MRSA ATCC 33591, were acquired from the American Type Culture Collection (ATCC). Before running the tests, beads with cryo-protected microorganisms were transferred into fresh MHB (BioMaxima, Lublin, Poland) for bacteria or RPMI-1640 for fungi and incubated for 24 h at 37 °C. Then, the culture was seeded on the Mueller-Hinton agar (MHA) plates (BioMaxima, Lublin, Poland) for bacteria or Sabouraud dextrose agar (SDA) plates (BioMaxima, Lublin, Poland) for fungi and incubated as just mentioned. Cell densities for all assays were adjusted spectrophotometrically (Multiskan™ GO Microplate Spectrophotometer, Thermo Fisher Scientific, Vantaa, Finland) at 600 nm for bacteria and at 530 nm for fungi.
(§2) The MICs were determined by broth microdilution method according to the Clinical and Laboratory Standard Institute guidelines. For this purpose initial inoculums of bacteria (5 × 10^5 CFU/mL) in MHB (BioMaxima, Lublin, Poland) and fungi (2 × 10^3 CFU/mL) in RPMI-1640 with 2% D-glucose (Merck, Darmstadt, Germany) prepared with MOPS (pH 7.0 ± 0.1 at 25 °C; Merck, Darmstadt, Germany) were exposed to the ranging concentration of lipopeptides (0.5–256 µg/mL) and incubated at 37 °C for 18 h and 24 h respectively. The experiments were conducted on 96-well microtiter polystyrene plates (Kartell, Italy). The MIC was taken as the lowest peptide concentration at which a noticeable growth of microorganisms was inhibited. All experiments were conducted in triplicate.

Data set [3] concerns P. aeruginosa ATCC 9027. It counts as cell-based, Pseudomonas aeruginosa. To be noted: ATCC 9027, 18 h.
Description: as §1, §2

For data set [4], the system named is C. albicans ATCC 10231. The class given is cell-based, Candida albicans. To be noted: ATCC 10231, 24 h, pH 7.
Description: as §1, §2

Data set [5] concerns human red blood cells (hRBCs). The class given is cell-based. To be noted: red cells of human, 1 h. The method, then: The hemolysis assay was performed as described earlier according to the method of Avrahami and Shai. Fresh human red blood cells (hRBCs) with anticoagulant (EDTA) were rinsed three times with a PBS (Merck, Darmstadt, Germany) by centrifugation at 800× g for 10 min and resuspended in PBS. Lipopeptides were serially diluted on 96-well microtiter polystyrene plate and hRBCs were added to reach final volume of 100 µL. Peptide concentration ranged between 0.5 and 256 µg/mL and final hRBCs concentration was 4% (v/v). Controls for zero hemolysis (blank) and 100% hemolysis consisted of hRBCs suspended in PBS and 1% of Triton-X 100 (Merck, Darmstadt, Germany), respectively. The plate was incubated for 1 h at 37 °C and then centrifuged (800× g, 10 min, 4 °C). Subsequently, supernatant was […] to new microtiter plates and absorbance at 540 nm were measured. All experiments were conducted in triplicate. Protocol of the study received approval from the local Bioethics Committee at the Medical University of Gdańsk (NKBBN/262/2019).

Data set [6] deals with S. aureus ATCC 33591 (MRSA). The class given is cell-based, Staphylococcus aureus. To be noted: ATCC 33591, 18 h.
Description: as §1, §2

The subject of data set [7] is E. faecium ATCC 700221. The class given is cell-based, Enterococcus faecium. To be noted: ATCC 700221, 18 h.
Description: as §1, §2

Data set [8] concerns K. pneumoniae ATCC 700603. The class given is cell-based, Klebsiella pneumoniae. To be noted: ATCC 700603, 18 h.
Description: as §1, §2

Data set [9] concerns A. baumannii ATCC BAA-1605. It counts as cell-based, Acinetobacter baumannii. To be noted: ATCC BAA-1605, 18 h.
Description: as §1, §2

The test system of data set [10] is K. aerogenes ATCC 13048. It counts as cell-based, Klebsiella aerogenes. To be noted: ATCC 13048, 18 h.
Description: as §1, §2

Converted amounts (≈) assume the structure as drawn. Residues, ends and D or L forms follow the SMILES beside them.

Results on 14 compounds are retold here after publication PMC7024302, “Ultrashort Cationic Lipopeptides–Effect of N-Terminal Amino Acid and Fatty Acid Type on Antimicrobial Activity and Hemolysis” (Molecules, 2020).

As to `CCCCCCCC(=O)N[C@@H](CCCNC(=N)N)C(=O)N[C@@H](CCCNC(=N)N)C(N)=O` [compound 1, C8-RR-NH2, reference compound] (HELM PEPTIDE1{[CCCCCCCC(=O)[*:2]].R.R.[am]}$$$$V2.0), in data set [1], the “tR’” value is given as 14.46 min.
Regarding `CCCCCCCCCC(=O)N[C@@H](CCCNC(=N)N)C(=O)N[C@@H](CCCNC(=N)N)C(N)=O` [compound 2, C10-RR-NH2, reference compound] (HELM PEPTIDE1{[CCCCCCCCCC(=O)[*:2]].R.R.[am]}$$$$V2.0), in data set [1], the “tR’ (adjusted retention time)” value was 24.30 min and the “tR’” value worked out at 24.30 min.
For `CCCCCCCCCCCCCC(=O)N[C@@H](CC(=O)O)C(=O)N[C@@H](CCCNC(=N)N)C(=O)N[C@@H](CCCNC(=N)N)C(N)=O` [compound 18, C14-DRR-NH2] (HELM PEPTIDE1{[CCCCCCCCCCCCCC(=O)[*:2]].D.R.R.[am]}$$$$V2.0), in [1], the “tR’” value is on record as 40.25 min. For the same compound, the “MIC SA” value in data set [2] is 64 mg/L (≈ 97.7 µM). For the same compound, the “MIC PA” value in data set [3] was determined as 128 mg/L (≈ 195 µM). The “MIC CA” value in data set [4] was 32 mg/L (≈ 48.9 µM). For the same compound, the HC50 in [5] is 49.95 (±1.00) µg/mL.
Consider `CCCCCCCCCCCCCC(=O)N[C@@H](CCC(=O)O)C(=O)N[C@@H](CCCNC(=N)N)C(=O)N[C@@H](CCCNC(=N)N)C(N)=O` [compound 22, C14-ERR-NH2] (HELM PEPTIDE1{[CCCCCCCCCCCCCC(=O)[*:2]].E.R.R.[am]}$$$$V2.0), for which the “tR’” value in [1] is on record as 40.17 min. Also, the “MIC SA” value in data set [2] was 64 mg/L (≈ 95.7 µM). In addition, the “MIC PA” value in [3] was 128 mg/L (≈ 191 µM). The “MIC CA” value in data set [4] was determined as 32 mg/L (≈ 47.8 µM). The HC50 in data set [5] is on record as 59.51 (±4.00) µg/mL.
For `CCCCCCCCCCCC(=O)NCC(=O)N[C@@H](CCCNC(=N)N)C(=O)N[C@@H](CCCNC(=N)N)C(N)=O` [compound 29, C12-GRR-NH2], in data set [1], the “tR’” value was 33.20 min. Besides, the “MIC SA” value in [2] stood at 32 mg/L (≈ 56.3 µM). In addition, the “MIC PA” value in [3] was determined as 128 mg/L (≈ 225 µM). In addition, the “MIC CA” value in data set [4] turned out to be 64 mg/L (≈ 113 µM). Further, in [5], the HC50 is reported as more than 256 µg/mL.
Regarding `CCCCCCCC(=O)N[C@@H](CCCC)C(=O)N[C@@H](CCCNC(=N)N)C(=O)N[C@@H](CCCNC(=N)N)C(N)=O` [compound 63, C8-NleRR-NH2] (HELM PEPTIDE1{[CCCCCCCC(=O)[*:2]].[Nle].R.R.[am]}$$$$V2.0), in data set [1], the Adjusted retention time stood at 25.429 min.
In data set [1], `CCCCCCCCCC(=O)N[C@@H](CCCC)C(=O)N[C@@H](CCCNC(=N)N)C(=O)N[C@@H](CCCNC(=N)N)C(N)=O` [compound 64, C10-NleRR-NH2] (HELM PEPTIDE1{[CCCCCCCCCC(=O)[*:2]].[Nle].R.R.[am]}$$$$V2.0) returned an Adjusted retention time of 33.155 min. Moreover, in data set [2], the “MIC SA” value is 32 mg/L (≈ 53.6 µM). Besides, the “MIC PA” value in [3] is 64 mg/L (≈ 107 µM). Also, the “MIC CA” value in data set [4] is 64 mg/L (≈ 107 µM). The same compound showed an HC50 in data set [5] of more than 256 µg/mL.
As for `CCCCCCCCCCCC(=O)N1CCC[C@H]1C(=O)N[C@@H](CCCNC(=N)N)C(=O)N[C@@H](CCCNC(=N)N)C(N)=O` [compound 73, C12-PRR-NH2], the “tR’” value in [1] amounted to 35.82 min. Besides, in data set [2], the “MIC SA” value was 32 mg/L (≈ 52.6 µM). The “MIC PA” value in data set [3] turned out to be 64 mg/L (≈ 105 µM). Besides, the “MIC CA” value in [4] stood at 64 mg/L (≈ 105 µM). In [5], this compound showed an HC50 of more than 256 µg/mL.
As for `CCCCCCCCCCCC(=O)N[C@H](C(=O)N[C@@H](CCCNC(=N)N)C(=O)N[C@@H](CCCNC(=N)N)C(N)=O)[C@@H](C)O` [compound 89, C12-TRR-NH2] (HELM PEPTIDE1{[CCCCCCCCCCCC(=O)[*:2]].T.R.R.[am]}$$$$V2.0), the “tR’” value in [1] worked out at 33.82 min. The “MIC SA” value in [2] is 32 mg/L (≈ 52.2 µM). Also, the “MIC PA” value in [3] turned out to be 128 mg/L (≈ 209 µM). Further, in [4], the “MIC CA” value came to 64 mg/L (≈ 104 µM). Also, the HC50 in data set [5] is reported as more than 256 µg/mL.
Turning to `CCCCCCCCC(CCCCCC)C(=O)N[C@@H](CCCNC(=N)N)C(=O)N[C@@H](CCCNC(=N)N)C(N)=O` (stereo partly drawn) [compound 105, C10(6)-RR-NH2], in [2], the “MIC SA” value was determined as 4 mg/L (≈ 7.04 µM). The “MIC S” value in data set [6] was determined as 4 mg/L (≈ 7.04 µM). In data set [3], the “MIC PA” value turned out to be 8 mg/L (≈ 14.1 µM). For the same compound, the “MIC CA” value in data set [4] is 16 mg/L (≈ 28.2 µM). Moreover, the HC50 in data set [5] was 200.25 (±16.07) µg/mL. Besides, the “MIC E1” value in data set [7] is 8 mg/L (≈ 14.1 µM). For the same compound, the “MIC K” value in data set [8] was >256 (-) µg/mL. In addition, in [9], the “MIC A” value came out at 256 mg/L (≈ 451 µM). Besides, the “MIC E2” value in data set [10] is reported as >256 (-) µg/mL.
As for `CCCCCCCCCC(=O)N[C@@H](CCCNC(=N)N)C(=O)N[C@@H](Cc1ccccc1)C(=O)N[C@@H](CCCNC(=N)N)C(N)=O` [compound 106, C10-RFR-NH2] (HELM PEPTIDE1{[CCCCCCCCCC(=O)[*:2]].R.F.R.[am]}$$$$V2.0), in [1], the “tR’ (adjusted retention time)” value is given as 31.44 min and the “∆tR” value came to 7.14 min.
For the compound `CCCCCCCCCCCC(=O)N[C@@H](CCCNC(=N)N)C(=O)N[C@@H](Cc1ccccc1)C(=O)N[C@@H](CCCNC(=N)N)C(N)=O` [compound 107, C12-RFR-NH2] (HELM PEPTIDE1{[CCCCCCCCCCCC(=O)[*:2]].R.F.R.[am]}$$$$V2.0), in data set [1], the “tR’ (adjusted retention time)” value is recorded as 38.67 min and the “∆tR” value was 6.09 min.
On the same counts, the results for `CCCCCCCCCC(=O)N[C@@H](CCCNC(=N)N)C(=O)N[C@@H](CCCNC(=N)N)C(=O)N[C@@H](Cc1ccccc1)C(N)=O` [compound 108, C10-RRF-NH2] (HELM PEPTIDE1{[CCCCCCCCCC(=O)[*:2]].R.R.F.[am]}$$$$V2.0) are 31.07 min and 6.77 min.
On the same counts, the results for `CCCCCCCCCCCC(=O)N[C@@H](CCCNC(=N)N)C(=O)N[C@@H](CCCNC(=N)N)C(=O)N[C@@H](Cc1ccccc1)C(N)=O` [compound 109, C12-RRF-NH2] (HELM PEPTIDE1{[CCCCCCCCCCCC(=O)[*:2]].R.R.F.[am]}$$$$V2.0) are 38.02 min and 5.44 min.
